Measured values as given in ChEMBL document CHEMBL5724914, “Linking interpersonal differences in gut microbiota composition and drug biotransformation activity” (2024).

Legend:
[1] = (§1) The drug is tested on Z-012 corresponding to metagenome with ENA study accession number: PRJEB37062 and ENA sample accession number: ERS12561812 for biotransformation under anaerobic condition. The drug concentrations were measured over 9 timepoints collected between 0 and 24 hours of incubation by liquid-chromatography-coupled mass spectrometry (LC–MS); conditions: 2 µM
[2] = as §1, with “Z-008” for “Z-012”, “ERS12561808” for “ERS12561812”; conditions: 2 µM
[3] = (§2) The drug is tested on WLS-098 corresponding to human gut metagenome with ENA study accession number: PRJEB37062 and ENA sample accession number: ERS12561754 for biotransformation under anaerobic condition. The drug concentrations were measured over 9 timepoints collected between 0 and 24 hours of incubation by liquid-chromatography-coupled mass spectrometry (LC–MS); conditions: 2 µM
[4] = as §2, with “WLS-010” for “WLS-098”, “ERS12561743” for “ERS12561754”; conditions: 2 µM
[5] = as §2, with “WLS-007” for “WLS-098”, “ERS12561742” for “ERS12561754”; conditions: 2 µM
[6] = as §2, with “WLS-006” for “WLS-098”, “ERS12561741” for “ERS12561754”; conditions: 2 µM
[7] = human gut metagenome, 24 h, 2 µM
[8] = human gut metagenome, 24 h, 2 µM; remark: listed apart in the source
[9] = human gut metagenome, 24 h, 2 µM; remark: listed apart in the source
Note: call rule not given here.

| SMILES | Bacterial Biotransformation [1] | Bacterial Biotransformation [2] | Bacterial Biotransformation [3] | Bacterial Biotransformation [4] | Bacterial Biotransformation [5] | Bacterial Biotransformation [6] | Bacterial Biotransformation [7] | Bacterial Biotransformation [8] | Bacterial Biotransformation [9] |
| --- | --- | --- | --- | --- | --- | --- | --- | --- | --- |
| C=CC[C@@H]1/C=C(\C)C[C@H](C)C[C@H](OC)[C@H]2O[C@@](O)(C(=O)C(=O)N3CCCC[C@H]3C(=O)O[C@H](/C(C)=C/[C@@H]3CC[C@@H](O)[C@H](OC)C3)[C@H](C)[C@@H](O)CC1=O)[C@H](C)C[C@@H]2OC.O [TACROLIMUS] | Compound NOT metabolized | Compound NOT metabolized | Compound NOT metabolized | Compound metabolized | Compound NOT metabolized | Compound metabolized | Compound metabolized | Compound metabolized | Compound metabolized |
| CCS(=O)(=O)CCn1c([N+](=O)[O-])cnc1C [TINIDAZOLE] | Compound metabolized | Compound metabolized | Compound metabolized | Compound metabolized | Compound metabolized | Compound metabolized | Compound metabolized | Compound metabolized | Compound metabolized |
| COc1ccc(CN2CCNCC2)c(OC)c1OC.Cl.Cl [TRIMETAZIDINE DIHYDROCHLORIDE] | Compound NOT metabolized | Compound NOT metabolized | Compound NOT metabolized | Compound NOT metabolized | Compound NOT metabolized | Compound NOT metabolized | Compound NOT metabolized | Compound NOT metabolized | Compound NOT metabolized |
| CN1[C@@H]2CC[C@H]1C[C@@H](OC(=O)c1c[nH]c3ccccc13)C2 [TROPISETRON] | Compound NOT metabolized | Compound NOT metabolized | Compound NOT metabolized | Compound NOT metabolized | Compound NOT metabolized | Compound NOT metabolized | Compound NOT metabolized | Compound NOT metabolized | Compound NOT metabolized |
| N#Cc1ccc2[nH]cc(CCCCN3CCN(c4ccc5oc(C(N)=O)cc5c4)CC3)c2c1 [VILAZODONE] | Compound NOT metabolized | Compound metabolized | Compound metabolized | Compound metabolized | Compound metabolized | Compound metabolized | Compound metabolized | Compound metabolized | Compound metabolized |
